According to patent publication US11752125B2, “Anti-neuroinflammatory and protective compounds in Achillea fragrantissima” (THE STATE OF ISRAEL MINISTRY OF AGRICULTURE & RURAL …, priority 2013, dated 2023):

Experiments:
[1] = DPPH free radical scavenging assay; settings: cell free; 8 min
Procedure: (§1) Antioxidant activity was measured using the 2,2-diphenyl-1-pieryhydrazyl (DPPH) radical scavenging assay. Different dilutions of TTF (or control drugs) were added to 1 mL of DPPH (3.9 mg/100 mL methanol) in test tubes wrapped in aluminum foil. Absorbance (A) was measured at 517 nm after 8 min incubation in the dark. The scavenging ability (%) of the samples was calculated as (Acontrol−Asample)/Acontrol×100).
as §1, with “achillolide A or quercetin” for “TTF (or control drugs)”
The DPPH scavenging ability of TTF, memantine and quercetin were compared for eight minutes. Results are shown in FIG. 7 and are the mean±SEM of two experiments performed in duplicates (n=4).
The DPPH scavenging ability of achillolide A and quercetin were tested for eight minutes. Values represent the mean±SEM (n=4 for each concentration). **p<0.01; ***p<0.001, compared to a mixture without achillolide A or quercetin.

MEK1 = test: H2O2-induced MEK1 phosphorylation in astrocytes (ELISA); type: cell-based, rat; settings: H2O2 175 μM 40 min; for effect on H2O2-induced phosphorylation of MEK1: astrocytes preincubated 2 h
Procedure: Astrocytes were treated with TTF 2 h before the addition of H2O2. Cells were lysed 40 minutes after the addition of H2O2 in lysis buffer supplied by PathScan sandwich ELISA kit (Cell Signaling TECHNOLOGY) according to the manufacturer's protocol. Protein concentrations in cell lysates were determined by Bradford reagent (Bio-Rad, Hercules, Calif.), and equal amounts of proteins were subjected to ELISA. To measure the amount of total and phosphoSAPK/JNK in cell lysates of astrocytes, ELISA was performed according to the manufacturer's protocol using the PathScan total SAPK/JNK sandwich ELISA kit (Cell Signaling TECHNOLOGY) and the PathScan phospho-SAPK/JNK (Thr183/Tyr185) sandwich ELISA kit (Cell Signaling TECHNOLOGY), respectively. To measure the amount of total and phospho-ERK 1/2 (i.e. phospho-p44/42 MAPK) in cell lysates of astrocytes, ELISA was performed according to the manufacturer's protocol using the PathScan total p44/42 MAPK (ERK 1/2) sandwich ELISA kit (Cell Signaling TECHNOLOGY) and the PathScan phospho-p44/42 MAPK (Thr202/Tyr204) sandwich ELISA kit (Cell Signaling TECHNOLOGY), respectively. To measure the amount of total and phospho-MEK1 in cell lysates of astrocytes, ELISA was performed according to the manufacturer's protocol using the PathScan total MEK1 sandwich ELISA kit (Cell Signaling TECHNOLOGY) and the PathScan phospho-MEK1 (Ser217/221) sandwich ELISA kit (Cell Signaling TECHNOLOGY), respectively. […] The optical density was determined at 450 nm using a microplate reader.
1. […] Determine the optical density at 450 nm using a microplate reader.
Astrocytes were treated with 175 μM of H2O2 for 40 min following preincubation with TTF for 2 h. The levels of phosphorylated and total SAPK/JNK (FIG. 3A), MEK1 (FIG. 3B) and ERK 1/2 (FIG. 3C) were measured by ELISA. […]

ERK1/2 = test: Aβ25-35-induced ERK1/2 phosphorylation in N2a cells (ELISA); type: cell-based; settings: concomitant treatment 30-40 min
Procedure: 7. Measure the amount of total and phosphorylated ERK 1/2 in cell lysates of N2a cells, by ELISA using the PathScan total p44/42 MAPK (ERK 1/2) sandwich ELISA kit (Cell Signaling TECHNOLOGY) or the PathScan phosoho-p44/42 MAPK (Thr202/Tyr204) sandwich ELISA kit (Cell Signaling TECHNOLOGY), respectively. 8. Determine the optical density at 450 nm using a microplate reader.
N2a cells were treated concomitantly with Aβ25-35 and TTF for 30 min. Cells were extracted and the levels of phosphorylated or total ERK1/2 were determined by specific ELISA kits. The results are shown in FIG. 14 and are the mean±SEM of two different experiments (n=4).
N2a cells were treated concomitantly with Aβ25-35 and achillolide A for 40 min. Cells were extracted and the levels of phosphorylated or total ERK 1/2 were determined by specific ELISA kits. The results are the mean±SEM of two different experiments (n=4).
N2a cells were treated concomitantly with Aβ25-35 and memantine for 30 min. Cells were extracted and the levels of phosphorylated ERK1/2 were determined by a specific ELISA kit. The results are the mean±SEM of one experiment (n=2).

Structure (SMILES) | IC50 [1] [µM] | inhibition of DPPH absorbance at 517 nm (maximal scavenging ability) [1] [%] | effect on H2O2-induced phosphorylation of MEK1 (MEK1) | effect on Aβ25-35-induced phosphorylation of ERK1/2 (ERK1/2) | inhibition of H2O2-induced phosphorylation of MEK1 (MEK1; astrocytes pretreated 2 h, total MEK1 not affected) [%]
C=C1CCC2=C(CO)C(=O)O[C@H]2/C=C(\C)[C@H](OC(C)=O)CC1=O [achillolide A] | 45 | 60 | inhibitory effect | significantly decreased | –
COc1cc(-c2oc3cc(OC)c(OC)c(O)c3c(=O)c2O)ccc1O [TTF, 3,5,4′-trihydroxy-6,7,3′-trimethoxyflavone] | 45 | 60 | – | significantly inhibited | 27
O=c1c(O)c(-c2ccc(O)c(O)c2)oc2cc(O)cc(O)c12 [quercetin, 3,3′,4′,5,7-Pentahydroxyflavone, reference compound] | – | 90 | – | – | –
CC12CC3CC(C)(C1)CC(N)(C3)C2 [memantine, reference compound] | – | 7 | inhibitory effect | does not affect | –
